Test results published in paper PMC9944328 (Nature Communications, 2023).
Where two headings read alike, the source gives them in different places.

Test system: SSTR2 mutants
Assay: SSTRs Gi-mediated cAMP inhibition, GloSensor, HEK293, 5 μM forskolin, 15 min room temperature (SSTR2 mutants)
Format: cell-based, human
Experimental: The levels of the intracellular 3′, 5′-cyclic AMP (cAMP) were measured by the GloSensor cAMP assay (Promega) as described in the previous studies[28],[41] which has been widely used. The human full-length SSTRs and mutants were cloned into the pcDNA3.1+ vector with a HA signal sequence followed by a Flag tag at the N-terminus. HEK293 cells (ATCC, CRL-1573) were seeded into 6-well microplates at a density of 1.0 × 10^6 cells/well and cultured for 24 h at 37 °C with 5% CO2. Cells were then co-transfected with SSTR wild-type or mutants and GloSensor plasmids. After 24 h of transfection, the cells were dissociated with TrypLE™ Express Enzyme (1X) (Thermo Fisher Scientific) and collected by centrifugation at 500 × g for 5 min. Then the collected cells were suspended in Hank’s balanced salt solution [HBSS (Thermo Fisher Scientific)] supplemented with […] (YEASEN), and then the suspension cells were seeded into 96-well plates with 90 μl/well. After incubating at room temperature for 40 min, 5 μM forskolin and ligands diluted in HBSS were added to each well and the plates were incubated at room temperature for 15 min. […] were measured using the Synergy H1 microplate reader (BioTek) and the data presented are means of at least three independent experiments.

[1] = cAMP inhibition best-fit, F127A-1
[2] = cAMP inhibition best-fit, F127A-2
[3] = cAMP inhibition best-fit, F127A-3
[4] = cAMP inhibition best-fit, I130A-1
[5] = cAMP inhibition best-fit, I130A-2
[6] = cAMP inhibition best-fit, I130A-3
[7] = cAMP inhibition best-fit, Q102A-1
[8] = cAMP inhibition best-fit, Q102A-2
[9] = cAMP inhibition best-fit, Q102A-3
[10] = cAMP inhibition best-fit, V103A-1
[11] = cAMP inhibition best-fit, V103A-2
[12] = cAMP inhibition best-fit, V103A-3

SMILES: N#Cc1cccc(-c2ccc3ncc(-c4cc(F)cc(F)c4)c(N4CCC(N)CC4)c3c2)c1O [paltusotine]
- LogEC50 (best-fit value), cAMP inhibition (Y302A-1 (run 1)): -7.774
- Span (best-fit value), cAMP inhibition (Y302A-1 (run 1)): 45.84
- Top (best-fit value), cAMP inhibition (Y302A-1 (run 1)): 51.54
- Bottom (best-fit value), cAMP inhibition (Y302A-2 (run 2)): 6.053
- LogEC50 (best-fit value), cAMP inhibition (Y302A-2 (run 2)): -7.903
- Span (best-fit value), cAMP inhibition (Y302A-2 (run 2)): 53.55
- Top (best-fit value), cAMP inhibition (Y302A-2 (run 2)): 59.6
- Bottom (best-fit value), cAMP inhibition (Y302A-3 (run 3)): 6.125
- LogEC50 (best-fit value), cAMP inhibition (Y302A-3 (run 3)): -8.216
- Span (best-fit value), cAMP inhibition (Y302A-3 (run 3)): 50.13
- Top (best-fit value), cAMP inhibition (Y302A-3 (run 3)): 56.25
- Bottom [1]: 3.363
- EC50 [1]: 0.994 nM
- LogEC50 [1]: -9.003
- Span [1]: 99.71
- Top [1]: 103.1
- Bottom [2]: -15.5
- EC50 [2]: 0.816 nM
- LogEC50 [2]: -9.089
- Span [2]: 125.3
- Top [2]: 109.8
- Bottom [3]: 3.745
- EC50 [3]: 0.665 nM
- LogEC50 [3]: -9.177
- Span [3]: 105.4
- Top [3]: 109.1
- Bottom [4]: 11.53
- EC50 [4]: 17.8 nM
- LogEC50 [4]: -7.749
- Span [4]: 105
- Top [4]: 116.5
- Bottom [5]: 16.26
- EC50 [5]: 15.1 nM
- LogEC50 [5]: -7.822
- Span [5]: 108.4
- Top [5]: 124.7
- Bottom [6]: 6.76
- EC50 [6]: 23.9 nM
- LogEC50 [6]: -7.621
- Span [6]: 101.4
- Top [6]: 108.2
- EC50 [7]: 43.6 nM
- LogEC50 [7]: -7.36
- Span [7]: 102.2
- Top [7]: 104
- EC50 [8]: 28.2 nM
- LogEC50 [8]: -7.55
- Span [8]: 100.8
- Top [8]: 101.3
- EC50 [9]: 21.3 nM
- LogEC50 [9]: -7.671
- Span [9]: 85.31
- Top [9]: 86.48
- Bottom [10]: 9.955
- EC50 [10]: 90.2 nM
- LogEC50 [10]: -7.045
- Span [10]: 84.48
- Top [10]: 94.43
- Bottom [11]: -12.27
- EC50 [11]: 7.12 nM
- LogEC50 [11]: -8.147
- Span [11]: 105.2
- Top [11]: 92.96
- Bottom [12]: 15.94
- EC50 [12]: 1.5 nM
- LogEC50 [12]: -8.823
- Span [12]: 58.67
- Top [12]: 74.61
- EC50 (read-out: EC50 (best-fit value), cAMP inhibition, D295A-1 (run 1)): 16 nM
- EC50 (read-out: EC50 (best-fit value), cAMP inhibition, D295A-2 (run 2)): 15.9 nM
- EC50 (read-out: EC50 (best-fit value), cAMP inhibition, D295A-3 (run 3)): 18.1 nM
- EC50 (read-out: EC50 (best-fit value), cAMP inhibition, F272A-1 (run 1)): 17.7 nM
- EC50 (read-out: EC50 (best-fit value), cAMP inhibition, F272A-2 (run 2)): 26.7 nM
- EC50 (read-out: EC50 (best-fit value), cAMP inhibition, F272A-3 (run 3)): 145 nM
- EC50 (read-out: EC50 (best-fit value), cAMP inhibition, F294A-1 (run 1)): 3.57 nM
- EC50 (read-out: EC50 (best-fit value), cAMP inhibition, F294A-2 (run 2)): 4.21 nM
- EC50 (read-out: EC50 (best-fit value), cAMP inhibition, F294A-3 (run 3)): 0.15 nM
- EC50 (read-out: EC50 (best-fit value), cAMP inhibition, K291A-1 (run 1)): 4.34 nM
- EC50 (read-out: EC50 (best-fit value), cAMP inhibition, K291A-2 (run 2)): 1.48 nM
- EC50 (read-out: EC50 (best-fit value), cAMP inhibition, K291A-3 (run 3)): 6.95 nM
- EC50 (read-out: EC50 (best-fit value), cAMP inhibition, N276A-1 (run 1)): 0.993 nM
- EC50 (read-out: EC50 (best-fit value), cAMP inhibition, N276A-2 (run 2)): 2.19 nM
- EC50 (read-out: EC50 (best-fit value), cAMP inhibition, N276A-3 (run 3)): 1.77 nM
- EC50 (read-out: EC50 (best-fit value), cAMP inhibition, Y302A-1 (run 1)): 16.8 nM
- EC50 (read-out: EC50 (best-fit value), cAMP inhibition, Y302A-2 (run 2)): 12.5 nM
- EC50 (read-out: EC50 (best-fit value), cAMP inhibition, Y302A-3 (run 3)): 6.08 nM
- EC50 (read-out: EC50 (best-fit value), F208A-1 (run 1)): 14.9 nM
- EC50 (read-out: EC50 (best-fit value), F208A-2 (run 2)): 98.5 nM
- EC50 (read-out: EC50 (best-fit value), F208A-3 (run 3)): 79.3 nM
- EC50 (read-out: EC50 (best-fit value), F265A-1 (run 1)): 11.3 nM
- EC50 (read-out: EC50 (best-fit value), F265A-2 (run 2)): 14.7 nM
- EC50 (read-out: EC50 (best-fit value), F265A-3 (run 3)): 9.82 nM
- EC50 (read-out: EC50 (best-fit value), P220A-1 (run 1)): 3.5 nM
- EC50 (read-out: EC50 (best-fit value), P220A-2 (run 2)): 3.09 nM
- EC50 (read-out: EC50 (best-fit value), P220A-3 (run 3)): 3.08 nM
- EC50 (read-out: EC50 (best-fit value), W269A-1 (run 1)): 0.601 nM
- EC50 (read-out: EC50 (best-fit value), W269A-2 (run 2)): 0.503 nM
- EC50 (read-out: EC50 (best-fit value), W269A-3 (run 3)): 0.604 nM
- EC50 (read-out: EC50 (best-fit value), Y205A-1 (run 1)): 0.344 nM
- EC50 (read-out: EC50 (best-fit value), Y205A-2 (run 2)): 0.915 nM
- EC50 (read-out: EC50 (best-fit value), Y205A-3 (run 3)): 0.18 nM
